Here are results for seven compounds from patent publication US20250262241A1, “METHODS TO IMPROVE STABILITY OF VIRUS TRANSDUCTION OF y8 T CELLS AND APPLICATIONS THEREOF” (UNICET BIOTECH CO. LLC., priority 2021, published 2025).

Read-outs that look alike come from different tables or passages of the source.

The test system of data set [1] is γδ2 T cells. The data set can be described thus: CAR (B7H3) related lentivirus transduction of γδ2 T cells with small inhibitors: transduction rate. Type of data set: cell-based, human. On the procedure: VSV-G pseudotyped lentiviral vectors were applied in this method. 1×10^7 293T cells were plated into a poly-D-lysine coated 100 mm dish. Next day the cells were transfected with 6 μg of pCDH-EF1-MCS-T2A-copGFP plasmid (Addgene, Plasmid #72263) or pCDH-EF1-CAR-T2A-copGFP plasmid modified from pCDH-EF1-MCS-T2A-copGFP, 4 μg of pspAx2 (Addgene, Plasmid #12260), 2 μg of pCMV-VSV-G (Addgene, Plasmid #8454) using 30 ug PEI transfection regents. After 8 hours of transfection, the cell culture medium was changed. The supernatant were collected 48 hours and 72 hours later. Concentrated the virus with Lenti-X™ Concentrator (Takara) and monitored the virus titers by transduction of 293T cells and stored the concentrated virus in −80° C. until further use.
(§1) For lentivirus transduction, 1×10^CFU lentivirus diluted in 200 ul PBS were added in a 24-well plate which were pre-coated with RetroNectin reagent (Takara) and centrifugated by 2,000 g for 2 hours at 32° C. After centrifugation, removed the supernatant and washed the plate with PBS three times slightly.
For the virus transduction of γδ2 T cells, seeded 1×10^PBMCs which were in vitro cultured after 48 hours in the γδ2 T cell culture medium mentioned above (Gibco serum free medium with rhIL-2 and ZOL). Added or not small inhibitors and mixed well and concentrated the cells by 800 g for 10 mins at 32° C. The plates were incubated at 37° C., 5% CO2. Discarded the small inhibitors regent by changing the cell culture medium 24 hours later.
Calculate the cell number by an automated cell counter and the transduction rate (GFP positive rate) was analyzed by flow cytometry every 2 to 3 days. The transduction rate was monitored in the gate of γδ2 or γδ1 T cells.

The subject of data set [2] is γδ2 T cells. Type of data set: cell-based, human. On the procedure:
(§2) The plates were incubated at 37° C., 5% CO2.

The subject of another data set is γδ1 T cells. In words: CAR related lentivirus transduction of γδ1 T cells with small inhibitors. Type of data set: cell-based, human. The note with it: control finally around 2%. As to the method:
as §1, §2
To test the application of these small molecule on improving the transduction rate of δδ1 T cells. We evaluated the transduction rate of δδ1 T cells with/without different dosage of small molecules.

The target in data set [3] is ubiquitin-specific protease USP7 (Homo sapiens, UniProt Q93009). The note with it: cited from earlier work.
Chain of ubiquitin-specific protease USP7 (Q93009 whole entry): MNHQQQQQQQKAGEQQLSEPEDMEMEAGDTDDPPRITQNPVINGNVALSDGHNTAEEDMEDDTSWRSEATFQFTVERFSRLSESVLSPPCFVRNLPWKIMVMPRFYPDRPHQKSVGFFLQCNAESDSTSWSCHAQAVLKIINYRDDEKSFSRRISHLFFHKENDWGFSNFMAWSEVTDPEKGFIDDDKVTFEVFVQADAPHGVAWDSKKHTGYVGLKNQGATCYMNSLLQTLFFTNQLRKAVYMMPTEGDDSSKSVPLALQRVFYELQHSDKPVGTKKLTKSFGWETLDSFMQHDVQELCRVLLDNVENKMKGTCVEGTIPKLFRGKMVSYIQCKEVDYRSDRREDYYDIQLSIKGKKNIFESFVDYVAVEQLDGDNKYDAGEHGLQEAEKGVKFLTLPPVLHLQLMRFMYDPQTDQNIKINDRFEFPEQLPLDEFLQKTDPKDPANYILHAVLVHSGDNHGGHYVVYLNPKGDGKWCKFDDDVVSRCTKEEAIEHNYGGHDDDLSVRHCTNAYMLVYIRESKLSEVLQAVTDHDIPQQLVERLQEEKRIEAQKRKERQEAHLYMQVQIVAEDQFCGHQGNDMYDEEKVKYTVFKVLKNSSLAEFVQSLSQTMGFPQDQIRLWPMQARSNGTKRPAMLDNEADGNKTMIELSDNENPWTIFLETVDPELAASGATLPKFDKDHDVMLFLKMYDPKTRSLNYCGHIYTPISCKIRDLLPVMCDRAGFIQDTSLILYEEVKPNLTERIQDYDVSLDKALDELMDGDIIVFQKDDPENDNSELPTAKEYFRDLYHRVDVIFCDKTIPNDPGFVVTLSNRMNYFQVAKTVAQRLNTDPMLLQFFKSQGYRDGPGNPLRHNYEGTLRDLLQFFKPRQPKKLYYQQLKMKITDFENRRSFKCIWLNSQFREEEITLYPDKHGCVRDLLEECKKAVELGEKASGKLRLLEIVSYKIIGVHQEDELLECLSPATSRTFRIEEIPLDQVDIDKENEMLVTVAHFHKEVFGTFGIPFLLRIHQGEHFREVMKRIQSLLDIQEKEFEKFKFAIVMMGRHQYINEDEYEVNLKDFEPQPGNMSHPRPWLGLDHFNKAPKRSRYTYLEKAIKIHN
The target in data set [4] is T1, ubiquitin-specific protease USP21 (Homo sapiens, UniProt Q9UK80).
T1 sequence (Q9UK80 1-565): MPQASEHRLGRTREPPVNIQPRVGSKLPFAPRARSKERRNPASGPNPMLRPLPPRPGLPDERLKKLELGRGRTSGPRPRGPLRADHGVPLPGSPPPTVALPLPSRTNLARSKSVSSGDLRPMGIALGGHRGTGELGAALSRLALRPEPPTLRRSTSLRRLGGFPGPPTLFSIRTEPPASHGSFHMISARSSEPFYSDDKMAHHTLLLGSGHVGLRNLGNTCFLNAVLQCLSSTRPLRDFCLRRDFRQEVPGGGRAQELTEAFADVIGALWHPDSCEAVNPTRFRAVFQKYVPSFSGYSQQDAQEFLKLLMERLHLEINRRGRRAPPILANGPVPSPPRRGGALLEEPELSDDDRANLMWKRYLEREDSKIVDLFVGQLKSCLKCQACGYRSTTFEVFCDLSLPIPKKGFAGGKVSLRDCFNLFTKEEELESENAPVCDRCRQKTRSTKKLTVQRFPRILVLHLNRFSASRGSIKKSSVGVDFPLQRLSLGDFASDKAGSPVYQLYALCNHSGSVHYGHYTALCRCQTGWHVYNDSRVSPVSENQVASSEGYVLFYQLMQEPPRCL
The note with it: cited from earlier work.

Consider `O=C(Nc1nc2ccccc2n1CCN1CCOCC1)c1cccc([N+](=O)[O-])c1` [IRAK1/4 Inhibitor I], for which the “effect on transduction rate” value in the data set with γδ2 T cells [1] (0.03 uM to 3 uM) is on record as “enhance the transduction rate in a dosage dependent manner”. The transduction rate result in the data set with γδ2 T cells [1] (3 uM, control around 5% at Day10) is reported as “higher than 35%”. The cell growth result with γδ2 T cells [2] (0.03 uM to 3 uM) is listed as “did not impair the cell growth”. The “effect on transduction rate of γδ1 T cells” value (“effect … of γδ1 T cells” below) with γδ1 T cells (0.3 uM) is “could improve the transduction rate”.

Consider `Nc1ncc2[nH]cnc2n1` [2-Aminopurine], for which the “effect on transduction rate” value in the data set with γδ2 T cells [1] (5 uM to 500 uM) was “enhance the transduction rate in a dosage dependent manner”. In the data set on γδ2 T cells [1] (500 uM, control around 5% at Day10), the transduction rate result was “around 60%”. Moreover, in the data set with γδ2 T cells [2] (5 uM to 500 uM), the cell growth entry is “did not impair the cell growth”. In addition, in the data set on γδ1 T cells (500 uM), the “effect … of γδ1 T cells” value is recorded as “could improve the transduction rate”.

In general, IC50 refers to the midpoint of a concentration-inhibition curve. In the case of `Cc1ccc(S(=O)(=O)/C=C/C#N)cc1` [BAY11-7082], the “effect on transduction rate” value in the data set on γδ2 T cells [1] (0.5 uM to 50 uM) is on record as “enhance the transduction rate in a dosage dependent manner”. In the data set with γδ2 T cells [1] (50 uM, control around 5% at Day10), the transduction rate result was “higher than 70%”. In addition, the cell growth entry with γδ2 T cells [2] (0.5 uM to 50 uM, higher dosage, less total cell number) is “impaired the cell growth in a dosage dependent manner”. For the same compound, the “effect … of γδ1 T cells” value in the data set on γδ1 T cells (50 uM) is “could improve the transduction rate”. In addition, the half-maximal inhibitory concentration (IC50) in data set [3] was 190 nM; in data set [4], 960 nM.

Regarding `C[C@@H]1C[C@H]2[C@@H]3CCC4=CC(=O)C=C[C@]4(C)[C@@]3(F)[C@@H](O)C[C@]2(C)[C@@]1(O)C(=O)CO` [Dexamethasone], the transduction rate result with γδ2 T cells [1] (6.4 uM, control around 5% at Day10) is given as “higher than 25%”. Moreover, the cell growth result in the data set on γδ2 T cells [2] (0.064 uM to 6.4 uM) is listed as “did not impair the cell growth”.

In the case of `COc1cc(O)c2c(c1)/C=C/C[C@H](O)[C@H](O)C(=O)/C=C\C[C@H](C)OC2=O` [(5Z)-7-Oxozeaenol], the transduction rate entry in the data set with γδ2 T cells [1] (0.6 uM, control around 5% at Day10) is listed as “higher than 20%”; with γδ2 T cells [1] (6 uM, control around 5% at Day10), “higher than 30%”. For the same compound, the “effect on transduction rate” value with γδ2 T cells [1] (60 uM compared with 6 uM) is listed as “did not perform better to improve the transduction rate”. In addition, the cell growth entry in the data set with γδ2 T cells [2] (0.6 uM and 6 uM) is given as “did not influence the cell growth”; in the data set with γδ2 T cells [2] (60 uM compared with 6 uM) it was “impaired the cell growth”. Moreover, in the data set on γδ1 T cells (6 uM), the “effect … of γδ1 T cells” value is “could improve the transduction rate”.

As to `COc1cc(/C=C/C(=O)CC(=O)/C=C/c2ccc(O)c(OC)c2)ccc1O` [Curcumin], the transduction rate entry in the data set on γδ2 T cells [1] (10 uM, day 10, control around 5%) is given as “higher than 20%”. The results for the “effect on transduction rate” value in the data set on γδ2 T cells [1] (100 uM (highest dosage)) and in the data set with γδ2 T cells [1] (luM (low dosage)) were “slightly enhance the transduction rate” and “did not enhance the transduction rate”, respectively. Also, the cell growth result in the data set on γδ2 T cells [2] (10 uM) is reported as “inhibited the cell growth slightly”; in the data set on γδ2 T cells [2] (100 uM), “significantly impaired the cell growth”; in the data set with γδ2 T cells [2] (luM (low dosage)), “enhanced the cell growth”. The “effect … of γδ1 T cells” value in the data set with γδ1 T cells (10 uM) is recorded as “could improve the transduction rate”.

For the compound `CC(C)C[C@H](NC(=O)[C@H](Cc1ccccc1)NC(=O)c1cnccn1)B(O)O` [Bortezomib], the transduction rate was approximately 50% in the data set with γδ2 T cells [1] (0.04 uM, control around 5% at Day10); “higher than 20%” with γδ2 T cells [1] (0.4 uM and 4 uM, control around 5% at Day10). Besides, the cell growth entry in the data set on γδ2 T cells [2] (0.04 uM, 0.4 uM, 4 uM) was “impaired the cell growth in a dosage dependent manner”. Further, in the data set with γδ2 T cells [2] (0.4 uM and 4 uM), the cell number entry is “significantly cell number loss”. Further, in the data set with γδ1 T cells (0.04 μM, 0.4 μM or 4 μM), the “effect … of γδ1 T cells” value is reported as “All the molecules except for Bortezomib could improve the transduction rate”.
